This passage reports IC50 results from patent publication US10072003B2, “Tetrahydronaphthyridine derivatives as mGluR2-negative allosteric modulators, compositions, and their use” (Merck Sharp & Dohme Corp., priority 2014, dated 2018).

For this experiment, the target named is recombinant human mGluR2 (Homo sapiens (Human), UniProt Q14416). In words: FLIPR Ca2+ mobilization antagonist assay in CHO dhfr- cells expressing human mGluR2 and Gα16. It is filed as cell-based. Conditions: antagonist response after addition of 2,500 nM glutamate, Fluo-4 AM, FLIPR384. As to the method: Antagonist constants are determined as follows. The compounds of the invention were tested in a fluorescence laser imaging plate reader based assay. This assay is a common functional assay to monitor Ca2+ mobilization in whole cells expressing recombinant receptor coupled with a promiscuous G-protein. CHO dhfr-cells stably expressing recombinant human mGluR2 and Gα16 loaded with Fluo-4 AM (Invitrogen, Carlsbad Calif.) were treated with various concentrations of antagonists of compounds and the Ca2+ response was monitored on a FLIPR384 (Molecular Devices, Sunnydale Calif.) for agonist activity. Then 2,500 nM glutamate was added and the antagonist response was monitored. The maximum calcium response at each concentration of compound for agonist or antagonist were plotted as dose responses and the curves were fitted with a four parameter logistic equation giving IC50 and Hill coefficient using the iterative non linear curve fitting software ADA (Merck & Co). Data in the following table represent activities in the antagonist assay.
recombinant human mGluR2, sequence (Q14416 19-872): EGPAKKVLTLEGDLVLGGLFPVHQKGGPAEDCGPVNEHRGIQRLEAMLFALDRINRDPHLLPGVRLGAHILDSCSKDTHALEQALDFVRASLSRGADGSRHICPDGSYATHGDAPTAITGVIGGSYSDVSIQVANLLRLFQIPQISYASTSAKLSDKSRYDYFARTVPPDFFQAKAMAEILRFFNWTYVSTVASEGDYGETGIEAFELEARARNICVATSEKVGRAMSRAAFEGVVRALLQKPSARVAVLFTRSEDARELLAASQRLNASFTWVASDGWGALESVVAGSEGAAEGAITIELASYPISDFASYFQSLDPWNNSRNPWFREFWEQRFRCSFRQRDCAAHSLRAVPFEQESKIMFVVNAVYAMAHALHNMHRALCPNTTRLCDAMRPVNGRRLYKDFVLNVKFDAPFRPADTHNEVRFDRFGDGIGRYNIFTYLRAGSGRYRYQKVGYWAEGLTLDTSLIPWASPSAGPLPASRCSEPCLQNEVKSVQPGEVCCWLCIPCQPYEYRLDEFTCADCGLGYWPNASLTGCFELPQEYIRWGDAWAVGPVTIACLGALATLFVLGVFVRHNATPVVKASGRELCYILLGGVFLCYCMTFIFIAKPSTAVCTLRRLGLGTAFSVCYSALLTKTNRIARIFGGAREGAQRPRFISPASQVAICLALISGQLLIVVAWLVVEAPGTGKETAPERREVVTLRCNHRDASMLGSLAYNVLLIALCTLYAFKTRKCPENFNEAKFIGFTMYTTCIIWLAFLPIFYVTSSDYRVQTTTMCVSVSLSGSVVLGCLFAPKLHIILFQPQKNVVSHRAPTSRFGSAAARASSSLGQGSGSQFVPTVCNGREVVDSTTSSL
In general, IC50 refers to the concentration that inhibits the measured activity by half. In the case of `CC(C)n1nccc1CN1CCc2c(-c3ccc(F)cc3F)cc(C(N)=O)nc2C1` [Example 1-9, 4-(2,4-difluorophenyl)-7-{[1-(1-methylethyl)-1H-pyrazol-5-yl]methyl}-5,6,7,8-tetrahydro-1,7-naphthyridine-2-carboxamide], the 50% inhibitory concentration (IC50) came to 8.2 nM. Next, `NC(=O)c1cc(-c2ccc(Cl)cc2F)c2c(n1)CN(Cc1ncon1)CC2` [Example 9-1, 7-((1,2,4-oxadiazol-3-yl)methyl)-4-(4-chloro-2-fluorophenyl)-5,6,7,8-tetrahydro-1,7-naphthyridine-2-carboxamide]: 27.7 nM; `COc1cc(CN2CCc3c(N4CCC(F)(F)CC4)cc(C(N)=O)nc3C2)ccn1` [Example 5-3, 4-(4,4-difluoropiperidin-1-yl)-7-[(2-methoxypyridin-4-yl)methyl]-5,6,7,8-tetrahydro-1,7-naphthyridine-2-carboxamide]: 41 nM; `NC(=O)c1cc(-c2ccc(F)cc2)c2c(n1)CN(C(c1cccnc1)C(F)(F)F)CC2` (racemic) [Example 3-1A, (S) and (R)-4-(4-fluorophenyl)-7-(2,2,2-trifluoro-1-(pyridin-3-yl)ethyl)-5,6,7,8-tetrahydro-1,7-naphthyridine-2-carboxamide]: 21.2 nM. For the molecule `Cn1nccc1CN1CCc2c(-c3ccc(Cl)cc3F)cc(C(N)=O)nc2C1` [Example 1-8, 4-(4-chloro-2-fluorophenyl)-7-[(1-methyl-1H-pyrazol-5-yl)methyl]-5,6,7,8-tetrahydro-1,7-naphthyridine-2-carboxamide], the 50% inhibitory concentration (IC50) is 8.7 nM. Then `NC(=O)c1cc(N2CCC3(CC2)CC3)c2c(n1)CN(Cc1ccnc(C(F)(F)F)n1)CC2` [Example 12-2, 4-(6-azaspiro[2.5]oct-6-yl)-7-{[2-(trifluoromethyl)pyrimidin-4-yl]methyl}-5,6,7,8-tetrahydro-1,7-naphthyridine-2-carboxamide], with 13.1 nM; and `NC(=O)c1cc(-c2cccc(C(F)(F)F)c2)c2c(n1)CN(Cc1ccnc(C(F)(F)F)c1)CC2` [Example 2-8, 4-[3-(trifluoromethyl)phenyl]-7-{[2-(trifluoromethyl)pyridin-4-yl]methyl}-5,6,7,8-tetrahydro-1,7-naphthyridine-2-carboxamide], with 188 nM; and `NC(=O)c1cc(-c2ccc(F)c(F)c2)c2c(n1)CN(Cc1ccnc(C(F)(F)F)c1)CC2` [Example 2-4, 4-(3,4-difluorophenyl)-7-{[2-(trifluoromethyl)pyridin-4-yl]methyl}-5,6,7,8-tetrahydro-1,7-naphthyridine-2-carboxamide], with 20.4 nM. Regarding `C[C@@H]1CN(c2cc(C(N)=O)nc3c2CCN(Cc2ccnc(C(F)(F)F)c2)C3)CCO1` [Example 5-2, (R)-4-(2-methylmorpholino)-7-((2-(trifluoromethyl)pyridin-4-yl)methyl)-5,6,7,8-tetrahydro-1,7-naphthyridine-2-carboxamide], the half-inhibitory concentration (IC50) amounted to 79.1 nM.

Take `NC(=O)c1cc(-c2cnn(C(F)F)c2)c2c(n1)CN(Cc1ccnc(C3CC3)c1)CC2` [Example 2-9, 7-[(2-cyclopropylpyridin-4-yl)methyl]-4-[1-(difluoromethyl)-1H-pyrazol-4-yl]-5,6,7,8-tetrahydro-1,7-naphthyridine-2-carboxamide]: the IC50 worked out at 10.8 nM.

`Cn1cc(CN2CCc3c(-c4ccc(Cl)cc4F)cc(C(N)=O)nc3C2)cn1` [Example 10-4, 4-(4-chloro-2-fluorophenyl)-7-[(1-methyl-1H-pyrazol-4-yl)methyl]-5,6,7,8-tetrahydro-1,7-naphthyridine-2-carboxamide]: the IC50 came to 14.6 nM. Then `NC(=O)c1cc(-c2ccccc2Cl)c2c(n1)CN(Cc1ccnc(C(F)(F)F)n1)CC2` [Example 11-4, 4-(2-chlorophenyl)-7-{[2-(trifluoromethyl)pyrimidin-4-yl]methyl}-5,6,7,8-tetrahydro-1,7-naphthyridine-2-carboxamide], with 19.7 nM; and `CC1(C)CC(O)(CN2CCc3c(-c4ccc(F)cc4F)cc(C(N)=O)nc3C2(C)C)CO1` (single isomer, unassigned) [Example 15-1B], with 23.6 nM. Consider `NC(=O)c1cc(-c2ccc(F)cc2F)c2c(n1)CN(CC(O)c1ccccc1)CC2` (single isomer, unassigned) [Example 8-3A, (S) or (R)-4-(2,4-difluorophenyl)-7-[(2S or 2R)-2-hydroxy-2-phenylethyl]-5,6,7,8-tetrahydro-1,7-naphthyridine-2-carboxamide], for which the IC50 was found to be 18.5 nM.

Take `CC1(C)CC(CN2CCc3c(-c4ccc(F)cc4F)cc(C(N)=O)nc3C2)CCO1` (single isomer, unassigned) [Example 1-11B, (S) or (R)-4-(2,4-difluorophenyl)-7-[(2,2-dimethyltetrahydro-2H-pyran-4-yl)methyl]-5,6,7,8-tetrahydro-1,7-naphthyridine-2-carboxamide]: the IC50 came out at 45.2 nM. Next, `COc1cc(C(N2CCc3c(-c4cnn(C)c4)cc(C(N)=O)nc3C2)C(F)(F)F)ccn1` (racemic) [Example 3-2B, (S) and (R)-4-(1-methyl-1H-pyrazol-4-yl)-7-(2,2,2-trifluoro-1-(2-methoxypyridin-4-yl)ethyl)-5,6,7,8-tetrahydro-1,7-naphthyridine-2-carboxamide]: 11.4 nM; `NC(=O)c1cc(-c2ccc(F)cc2Cl)c2c(n1)CN(Cc1ccnc(OC(F)F)c1)CC2` [Example 2-11, 4-(2-chloro-4-fluorophenyl)-7-{[2-(difluoromethoxy)pyridin-4-yl]methyl}-5,6,7,8-tetrahydro-1,7-naphthyridine-2-carboxamide]: 10.4 nM; `COc1cc(C(N2CCc3c(C4=CCC(C)CC4)cc(C(N)=O)nc3C2)C(F)(F)F)ccn1` (racemic) [Example 4-3B, 4-((S) and (R)-4-methylcyclohex-1-en-1-yl)-7-((S) and (R)-2,2,2-trifluoro-1-(2-methoxypyridin-4-yl)ethyl)-5,6,7,8-tetrahydro-1,7-naphthyridine-2-carboxamide]: 86.6 nM.

As for `NC(=O)c1cc(-c2ccc(Cl)cc2F)c2c(n1)CN(Cc1ccnc(C(F)(F)F)n1)CC2` [Example 11-3, 4-(4-chloro-2-fluorophenyl)-7-{[2-(trifluoromethyl)pyrimidin-4-yl]methyl}-5,6,7,8-tetrahydro-1,7-naphthyridine-2-carboxamide], the IC50 is 7.2 nM.

On to `NC(=O)c1cc(N2CCC(F)(F)CC2)c2c(n1)CN(Cc1cc(C(F)(F)F)ncn1)CC2` [Example 12-4, 4-(4,4-difluoropiperidin-1-yl)-7-{[6-(trifluoromethyl)pyrimidin-4-yl]methyl}-5,6,7,8-tetrahydro-1,7-naphthyridine-2-carboxamide], for which the IC50 was 35.9 nM. As for `NC(=O)c1cc(-c2ccc(F)cc2Cl)c2c(n1)CN(Cc1ccnc(C(F)(F)F)n1)CC2` [Example 11-5, 4-(2-chloro-4-fluorophenyl)-7-{[2-(trifluoromethyl)pyrimidin-4-yl]methyl}-5,6,7,8-tetrahydro-1,7-naphthyridine-2-carboxamide], the half-maximal inhibitory concentration (IC50) was 17.6 nM. Turning to `NC(=O)c1cc(-c2cnn(C(F)F)c2)c2c(n1)CN(Cc1ccnc(OC(F)F)c1)CC2` [Example 2-12, 7-{[2-(difluoromethoxy)pyridin-4-yl]methyl}-4-[1-(difluoromethyl)-1H-pyrazol-4-yl]-5,6,7,8-tetrahydro-1,7-naphthyridine-2-carboxamide], the IC50 is 8.5 nM. Next, `CC1(C)CCC(c2cc(C(N)=O)nc3c2CCN(Cc2ccnc(C(F)(F)F)c2)C3)CC1` [Example 4-1, 4-(4,4-dimethylcyclohexyl)-7-((2-(trifluoromethyl)pyridin-4-yl)methyl)-5,6,7,8-tetrahydro-1,7-naphthyridine-2-carboxamide]: 117 nM; `CC1(C)CC(O)(CN2CCc3c(-c4ccc(F)cc4F)cc(C(N)=O)nc3C2)CCO1` (single isomer, unassigned) [Example 14-2A]: 31.7 nM; `CC(C)(C)[C@H]1C[C@@H](CN2CCc3c(-c4ccc(F)cc4)cc(C(N)=O)nc3C2)CCO1` [Example 1-3B, 7-(((2R,4S)-2-(tert-butyl)tetrahydro-2H-pyran-4-yl)methyl)-4-(4-fluorophenyl)-5,6,7,8-tetrahydro-1,7-naphthyridine-2-carboxamide]: 179 nM.

As for `NC(=O)c1cc(N2CCCC3(CC3)C2)c2c(n1)CN(Cc1ccnc(C(F)(F)F)c1)CC2` [Example 5-4, 4-(5-azaspiro[2.5]oct-5-yl)-7-{[2-(trifluoromethyl)pyridin-4-yl]methyl}-5,6,7,8-tetrahydro-1,7-naphthyridine-2-carboxamide], the IC50 is 29 nM. Then `NC(=O)c1cc(-c2cnn(C(F)F)c2)c2c(n1)CN(Cc1ccnc(C(F)(F)F)c1)CC2` [Example 2-5, 4-[1-(difluoromethyl)-1H-pyrazol-4-yl]-7-{[2-(trifluoromethyl)pyridin-4-yl]methyl}-5,6,7,8-tetrahydro-1,7-naphthyridine-2-carboxamide], with 30.3 nM. Then `COc1nccc(CN2CCc3c(-c4ccc(Cl)cc4F)cc(C(N)=O)nc3C2)n1` [Example 9-3, 4-(4-chloro-2-fluorophenyl)-7-[(2-methoxypyrimidin-4-yl)methyl]-5,6,7,8-tetrahydro-1,7-naphthyridine-2-carboxamide], with 14.2 nM; and `Cn1nncc1CN1CCc2c(-c3c(F)cc(F)cc3F)cc(C(N)=O)nc2C1` [Example 2-21, 7-[(1-methyl-1H-1,2,3-triazol-5-yl)methyl]-4-(2,4,6-trifluorophenyl)-5,6,7,8-tetrahydro-1,7-naphthyridine-2-carboxamide], with 33.7 nM.
